Assay [1] addresses T1, CDK9/CycT1 (Homo sapiens, UniProt P50750).
T1 construct: Recombinant full-length His-tagged human CDK9 and CycT1; purchased Life Technologies PV4131; host or cells: insect cells
Description: CDK9/CycT1 high ATP kinase assay (TR-FRET, 2 mM ATP). Format: biochemical. The procedure, abridged: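 Full-length His-tagged human CDK9/CycT1 (insect cell, ~0.5 μg/mL) preincubated 15 min at 22 °C with compound in Tris pH 8.0, MgCl2, DTT buffer before reaction with biotinylated peptide substrate at high ATP (2 mM).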

Assay [2] relates to CAL-120, human breast adenocarcinoma cells. Description: Proliferation assay CAL-120 (crystal violet, 4 days). Format: cell-based. Particulars: Homo sapiens, CAL-120 cells, median, read-out: Prolif-CAL-120, IC50-[mol/l] (median). A digest of the protocol:
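CAL-120 or MDA-MB-231 cells grown 24 h, then exposed 4 days to compound (0.01–10 micromol/L, 0.1% DMSO). Crystal violet staining, absorbance at 595 nm, normalised to a zero-point plate (0%) and untreated cells (100%); IC50 by 4-parameter fit.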

Assay [3] deals with T2, CYCLIN K (nuclear staining in CAL-120 cells) (Homo sapiens, UniProt O75909).
T2 construct: endogenous in cells; host or cells: CAL-120 human breast cancer cells (DSMZ ACC 459)
Briefly: CYCLIN K nuclear protein level: immunofluorescence high content analysis (CAL-120). Format: cell-based. The settings on record: 24 h, 50% reduction of nuclear CCNK staining intensity, median, read-out: CYCLIN K degradation IF, DC50-[mol/l] (median). The procedure, abridged:
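CAL-120 breast cancer cells treated in dose-response for 24 h at 37 °C, PFA-fixed and immunostained for cyclin K with Hoechst counterstain. Confocal imaging quantified nuclear intensity; DC50 is the concentration giving 50% reduction of nuclear CCNK staining, normalized to DMSO and control.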

In assay [4] the test system is BRCA1 mRNA expression in CAL-120 cells. Briefly: qRT-PCR assay: BRCA1 mRNA expression in CAL-120. Type of assay: cell-based. The settings on record: Homo sapiens; Inhibition of BRCA1 mRNA expression in CAL-120 cells; median; read-out: RTqPCR-CAL-120, IC50, BRCA1 (median). A digest of the protocol: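 Cells were seeded at 200,000 cells/well, left 24 h, then exposed continuously to test substances for 24 h. Total RNA (600 ng) was reverse-transcribed to cDNA and amplified by qPCR, and transcript levels were normalised to GAPDH housekeeping expression.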

Setting [5] is: 2 mM ATP (high ATP), median, read-out: CDK9/CyclinT1, 2 mM ATP (high ATP), IC50 (median).

Read-outs that look alike come from different tables or passages of the source. Some results are limits rather than exact numbers.

T2 sequence (O75909 whole entry): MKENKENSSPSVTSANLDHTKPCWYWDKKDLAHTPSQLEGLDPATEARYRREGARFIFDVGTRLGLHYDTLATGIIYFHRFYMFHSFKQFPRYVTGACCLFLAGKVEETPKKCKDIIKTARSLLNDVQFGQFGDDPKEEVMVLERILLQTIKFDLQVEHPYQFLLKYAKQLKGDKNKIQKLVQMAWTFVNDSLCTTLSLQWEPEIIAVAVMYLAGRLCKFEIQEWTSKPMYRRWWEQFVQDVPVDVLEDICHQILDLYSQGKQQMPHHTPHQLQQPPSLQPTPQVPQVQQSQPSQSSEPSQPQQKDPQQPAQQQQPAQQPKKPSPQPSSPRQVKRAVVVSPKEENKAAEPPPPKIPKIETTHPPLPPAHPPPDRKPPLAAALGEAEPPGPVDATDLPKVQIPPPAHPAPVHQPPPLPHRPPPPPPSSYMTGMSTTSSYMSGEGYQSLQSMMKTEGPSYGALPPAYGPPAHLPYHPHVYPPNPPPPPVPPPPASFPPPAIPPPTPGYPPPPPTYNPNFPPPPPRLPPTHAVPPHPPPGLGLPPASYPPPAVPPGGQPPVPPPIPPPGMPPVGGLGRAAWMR
T2 sequence (Q9NYV4 whole entry partner): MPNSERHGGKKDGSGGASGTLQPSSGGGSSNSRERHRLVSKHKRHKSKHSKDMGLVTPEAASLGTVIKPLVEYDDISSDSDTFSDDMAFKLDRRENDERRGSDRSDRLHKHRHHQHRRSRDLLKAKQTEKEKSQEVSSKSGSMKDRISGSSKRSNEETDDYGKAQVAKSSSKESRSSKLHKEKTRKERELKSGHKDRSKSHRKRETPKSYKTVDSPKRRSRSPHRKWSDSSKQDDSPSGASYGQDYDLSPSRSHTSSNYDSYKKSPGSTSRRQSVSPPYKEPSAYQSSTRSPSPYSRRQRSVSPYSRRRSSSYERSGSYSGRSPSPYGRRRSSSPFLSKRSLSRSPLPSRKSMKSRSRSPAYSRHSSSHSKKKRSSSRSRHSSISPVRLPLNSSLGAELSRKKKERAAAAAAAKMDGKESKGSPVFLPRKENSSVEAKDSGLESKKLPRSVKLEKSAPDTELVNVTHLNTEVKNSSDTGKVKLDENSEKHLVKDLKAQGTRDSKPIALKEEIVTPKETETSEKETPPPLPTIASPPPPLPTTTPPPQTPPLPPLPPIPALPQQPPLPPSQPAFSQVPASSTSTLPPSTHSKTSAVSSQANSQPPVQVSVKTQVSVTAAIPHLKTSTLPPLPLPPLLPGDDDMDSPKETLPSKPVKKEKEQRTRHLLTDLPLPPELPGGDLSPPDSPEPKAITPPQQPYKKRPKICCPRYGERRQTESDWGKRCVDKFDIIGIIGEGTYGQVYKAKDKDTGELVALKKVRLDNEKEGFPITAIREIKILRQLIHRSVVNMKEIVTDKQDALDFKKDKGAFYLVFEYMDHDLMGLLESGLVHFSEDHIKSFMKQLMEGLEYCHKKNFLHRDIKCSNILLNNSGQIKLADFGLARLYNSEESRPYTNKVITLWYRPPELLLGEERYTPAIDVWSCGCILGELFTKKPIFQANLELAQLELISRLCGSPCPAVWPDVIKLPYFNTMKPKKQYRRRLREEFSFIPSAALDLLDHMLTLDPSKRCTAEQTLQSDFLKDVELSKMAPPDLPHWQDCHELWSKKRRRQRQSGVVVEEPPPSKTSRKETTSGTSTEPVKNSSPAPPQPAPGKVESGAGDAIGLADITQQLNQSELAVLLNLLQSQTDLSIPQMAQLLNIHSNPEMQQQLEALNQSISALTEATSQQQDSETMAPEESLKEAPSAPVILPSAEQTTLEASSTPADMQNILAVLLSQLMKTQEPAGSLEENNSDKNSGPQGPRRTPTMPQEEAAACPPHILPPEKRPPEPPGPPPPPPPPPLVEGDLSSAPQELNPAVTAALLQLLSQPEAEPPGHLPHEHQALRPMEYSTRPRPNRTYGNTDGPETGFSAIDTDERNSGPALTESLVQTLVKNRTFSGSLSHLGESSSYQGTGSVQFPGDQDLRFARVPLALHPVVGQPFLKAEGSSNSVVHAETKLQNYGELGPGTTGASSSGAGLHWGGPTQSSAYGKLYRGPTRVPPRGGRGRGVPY
T1 sequence (P50750 whole entry): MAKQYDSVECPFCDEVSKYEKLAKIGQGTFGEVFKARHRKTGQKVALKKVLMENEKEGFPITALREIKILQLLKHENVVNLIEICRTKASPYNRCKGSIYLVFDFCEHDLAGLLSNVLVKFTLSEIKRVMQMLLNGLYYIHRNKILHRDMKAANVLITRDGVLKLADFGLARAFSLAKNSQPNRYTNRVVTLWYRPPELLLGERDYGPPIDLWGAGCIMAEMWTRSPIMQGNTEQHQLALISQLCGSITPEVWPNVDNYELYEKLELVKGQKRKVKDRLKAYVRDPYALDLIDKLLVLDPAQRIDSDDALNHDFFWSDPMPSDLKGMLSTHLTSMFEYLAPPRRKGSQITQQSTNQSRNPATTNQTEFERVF
T1 sequence (O60563 whole entry partner): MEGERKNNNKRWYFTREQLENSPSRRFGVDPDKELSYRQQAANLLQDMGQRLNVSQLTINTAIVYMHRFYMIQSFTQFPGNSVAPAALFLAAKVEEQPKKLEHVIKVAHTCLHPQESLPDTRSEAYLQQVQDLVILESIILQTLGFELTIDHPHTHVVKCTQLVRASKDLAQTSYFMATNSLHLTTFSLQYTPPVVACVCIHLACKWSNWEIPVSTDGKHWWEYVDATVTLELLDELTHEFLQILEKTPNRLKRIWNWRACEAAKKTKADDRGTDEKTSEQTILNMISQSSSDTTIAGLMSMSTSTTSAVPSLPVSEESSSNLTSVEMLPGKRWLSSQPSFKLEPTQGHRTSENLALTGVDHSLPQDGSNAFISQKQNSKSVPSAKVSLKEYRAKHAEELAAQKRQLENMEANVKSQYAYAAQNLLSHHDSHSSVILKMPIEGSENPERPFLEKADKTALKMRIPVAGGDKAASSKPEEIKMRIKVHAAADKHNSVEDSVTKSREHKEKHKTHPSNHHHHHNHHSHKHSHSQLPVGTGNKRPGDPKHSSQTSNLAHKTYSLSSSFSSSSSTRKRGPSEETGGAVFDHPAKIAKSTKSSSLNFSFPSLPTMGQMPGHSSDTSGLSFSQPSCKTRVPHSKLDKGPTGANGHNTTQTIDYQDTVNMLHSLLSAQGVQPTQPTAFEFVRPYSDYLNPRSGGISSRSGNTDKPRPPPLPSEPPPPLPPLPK

For the compound `Brc1cnn2c(NCc3nc4ccccc4[nH]3)nc(N3CCN4CCC3CC4)nc12` [Example 349, N-[(1H-benzimidazol-2-yl)methyl]-8-bromo-2-(1,4-diazabicyclo[3.2.2]nonan-4-yl)pyrazolo[1,5-a][1,3,5]triazin-4-amine], the IC50 was over 20000 nM in assay [1] (setting [5]) and 3.76 nM in assay [2] (CAL-120, 96 h). The DC50 in assay [3] worked out at 0.784 nM.

`CN1CCN(c2nc(NCc3nc4cc(F)c(Cl)cc4[nH]3)n3ncc(Br)c3n2)CC1` [Example 337, 8-bromo-N-[(6-chloro-5-fluoro-1H-benzimidazol-2-yl)methyl]-2-(4-methylpiperazin-1-yl)pyrazolo[1,5-a][1,3,5]triazin-4-amine]: the IC50 is over 20000 nM in assay [1] (setting [5]) and 2.04 nM in assay [2] (CAL-120, 96 h). The DC50 in assay [3] was 0.369 nM.

In the case of `CN(CC(C)(C)O)c1nc(NCc2nc3cc(F)c(F)cc3[nH]2)n2ncc(Br)c2n1` [Example 347], the IC50 in assay [1] (setting [5]) stood at 10400 nM; in assay [2] (CAL-120, 96 h), 2.47 nM. Besides, the DC50 in assay [3] was found to be 0.101 nM.

For `FC(F)(F)c1ccc2[nH]c(CNc3nc(N4CC5CCC(C4)N5)nc4c(Br)cnn34)nc2c1` [Example 354, 8-bromo-2-(3,8-diazabicyclo[3.2.1]octan-3-yl)-N-{[5-(trifluoromethyl)-1H-benzimidazol-2-yl]methyl}pyrazolo[1,5-a][1,3,5]triazin-4-amine], the IC50 in assay [1] (setting [5]) is over 20000 nM; in assay [2] (CAL-120, 96 h), 2.8 nM. Also, the DC50 in assay [3] was determined as 1.65 nM.

As to `CN1CCN(c2nc(NCc3nc4cc(C(F)(F)F)ccc4[nH]3)n3ncc(Br)c3n2)CC1` [Example 344, 8-bromo-2-(4-methylpiperazin-1-yl)-N-{[5-(trifluoromethyl)-1H-benzimidazol-2-yl]methyl}pyrazolo[1,5-a][1,3,5]triazin-4-amine], the IC50 in assay [1] (setting [5]) was over 20000 nM; in assay [2] (CAL-120, 96 h) it was 2.7 nM. Also, the DC50 in assay [3] was 0.392 nM.

Take `CC(C)c1cnn2c(NCc3ncc(-c4ccccc4)[nH]3)nc(N3CCN(C)CC3)nc12` [Example 31, 2-(4-methylpiperazin-1-yl)-N-[(5-phenyl-1H-imidazol-2-yl)methyl]-8-(propan-2-yl)pyrazolo[1,5-a][1,3,5]triazin-4-amine]: the IC50 in assay [4] was 54.9 nM; in assay [1] (setting [5]), over 20000 nM; in assay [2] (CAL-120, 96 h) it was 21 nM.

On to `Cc1cc2nc(CNc3nc(N4CC5CCC(C4)N5)nc4c(C5CC5)cnn34)[nH]c2cc1C` [Example 326, 8-cyclopropyl-2-(3,8-diazabicyclo[3.2.1]octan-3-yl)-N-[(5,6-dimethyl-1H-benzimidazol-2-yl)methyl]pyrazolo[1,5-a][1,5]triazin-4-amine], for which the IC50 in assay [1] (setting [5]) turned out to be 17000 nM; in assay [2] (CAL-120, 96 h) it was 1.25 nM. Moreover, in assay [3], the DC50 was 0.654 nM.

With `Fc1cc2nc(CNc3nc(N4CC5CCC(C4)N5)nc4c(Br)cnn34)[nH]c2cc1Cl` [Example 348, 8-bromo-N-[(6-chloro-5-fluoro-1H-benzimidazol-2-yl)methyl]-2-(3,8-diazabicyclo[3.2.1]octan-3-yl)pyrazolo[1,5-a][1,3,5]triazin-4-amine], the results for the IC50 in assay [1] and in assay [2] (96 h) were 14000 nM and 1.14 nM, respectively. In assay [3], the DC50 came out at 1.17 nM.

In the case of `CN(CC(C)(C)O)c1nc(NCc2nc3cc(Cl)c(Cl)cc3[nH]2)n2ncc(Br)c2n1` [Example 331, 1-[(8-bromo-4-{[(5,6-dichloro-1H-benzimidazol-2-yl)methyl]amino}pyrazolo[1,5-a][1,3,5]triazin-2-yl)(methyl)amino]-2-methylpropan-2-ol], the IC50 in assay [1] (setting [5]) came to 4900 nM; in assay [2] (CAL-120, 96 h), 3.08 nM. The DC50 in assay [3] is 0.44 nM.

Regarding `CN1CCN(c2nc(NCc3nc4cc(F)c(F)cc4[nH]3)n3ncc(Br)c3n2)CC1` [Example 346, 8-bromo-N-[(5,6-difluoro-1H-benzimidazol-2-yl)methyl]-2-(4-methylpiperazin-1-yl)pyrazolo[1,5-a][1,3,5]triazin-4-amine], the IC50 in assay [1] (setting [5]) was over 20000 nM; in assay [2] (CAL-120, 96 h) it was 2.66 nM. Further, the DC50 in assay [3] is 0.149 nM.

As to `CN(CC(C)(C)O)c1nc(NCc2nc3cc(F)c(Cl)cc3[nH]2)n2ncc(Br)c2n1` [Example 338, 1-[(8-bromo-4-{[(6-chloro-5-fluoro-1H-benzimidazol-2-yl)methyl]amino}pyrazolo[1,5-a][1,3,5]triazin-2-yl)(methyl)amino]-2-methylpropan-2-ol], the IC50 was found to be 8300 nM in assay [1] (setting [5]) and 1.93 nM in assay [2] (CAL-120, 96 h). The DC50 in assay [3] stood at 0.17 nM.

Turning to `CN1CCN(c2nc(NCc3nc4c(F)c(Cl)ccc4[nH]3)n3ncc(Br)c3n2)CC1` [Example 373, 8-bromo-N-[(5-chloro-4-fluoro-1H-benzimidazol-2-yl)methyl]-2-(4-methylpiperazin-1-yl)pyrazolo[1,5-a][1,3,5]triazin-4-amine], the IC50 in assay [1] (setting [5]) amounted to 14400 nM; in assay [2] (CAL-120, 96 h) it was 1.93 nM. In addition, the DC50 in assay [3] was 0.0805 nM.

Turning to `Cc1cc2nc(CNc3nc(N4CCOCC4)nc4c(Br)cnn34)[nH]c2cc1C` [Example 340, 8-bromo-N-[(5,6-dimethyl-1H-benzimidazol-2-yl)methyl]-2-(morpholin-4-yl)pyrazolo[1,5-a][1,3,5]triazin-4-amine], the IC50 in assay [1] (setting [5]) was 12600 nM; in assay [2] (CAL-120, 96 h), 3.36 nM. The DC50 in assay [3] was found to be 0.827 nM.

For `Fc1cc2nc(CNc3nc(N4CCOCC4)nc4c(Br)cnn34)[nH]c2cc1F` [Example 341, 8-bromo-N-[(5,6-difluoro-1H-benzimidazol-2-yl)methyl]-2-(morpholin-4-yl)pyrazolo[1,5-a][1,3,5]triazin-4-amine], the IC50 in assay [1] (setting [5]) was 17400 nM; in assay [2] (CAL-120, 96 h), under 0.1 nM. For the same compound, in assay [3], the DC50 was determined as 0.29 nM.

Consider `Fc1cc2nc(CNc3nc(N4CC5CCC(C4)N5)nc4c(Br)cnn34)[nH]c2cc1F` [Example 355, 8-bromo-2-(3,8-diazabicyclo[3.2.1]octan-3-yl)-N-[(5,6-difluoro-1H-benzimidazol-2-yl)methyl]pyrazolo[1,5-a][1,3,5]triazin-4-amine], for which the IC50 in assay [1] (setting [5]) is over 20000 nM; in assay [2] (CAL-120, 96 h), 2.2 nM. Moreover, the DC50 in assay [3] is 0.481 nM.

For `CN(CC(C)(C)O)c1nc(NCc2nc3cc(C(F)(F)F)ccc3[nH]2)n2ncc(Br)c2n1` [Example 345, 1-{[8-bromo-4-({[5-(trifluoromethyl)-1H-benzimidazol-2-yl]methyl}amino)pyrazolo[1,5-a][1,3,5]triazin-2-yl](methyl)amino}-2-methylpropan-2-ol], the IC50 in assay [1] (setting [5]) came to 6240 nM; in assay [2] (CAL-120, 96 h) it was 3.05 nM. In addition, the DC50 in assay [3] stood at 0.698 nM.

Take `CN1C2CCC1CN(c1nc(NCc3nc4c(F)c(F)ccc4[nH]3)n3ncc(C(F)(F)F)c3n1)C2` [Example 356, N-[(4,5-difluoro-1H-benzimidazol-2-yl)methyl]-2-(8-methyl-3,8-diazabicyclo[3.2.1]octan-3-yl)-8-(trifluoromethyl)pyrazolo[1,5-a][1,3,5]triazin-4-amine]: the IC50 in assay [1] (setting [5]) is over 20000 nM; in assay [2] (CAL-120, 96 h), 2.1 nM. For the same compound, the DC50 in assay [3] came to 2.01 nM.

For the compound `Fc1c(Cl)ccc2[nH]c(CNc3nc(N4CCOCC4)nc4c(Br)cnn34)nc12` [Example 372, 8-bromo-N-[(5-chloro-4-fluoro-1H-benzimidazol-2-yl)methyl]-2-(morpholin-4-yl)pyrazolo[1,5-a][1,3,5]triazin-4-amine], the IC50 in assay [1] (setting [5]) was 3930 nM; in assay [2] (CAL-120, 96 h), 2.94 nM. The DC50 in assay [3] amounted to 0.227 nM.

For the compound `Cc1cc2nc(CNc3nc(N4CCN(C)CC4)nc4c(Br)cnn34)[nH]c2cc1C` [Example 342, 8-bromo-N-[(5,6-dimethyl-1H-benzimidazol-2-yl)methyl]-2-(4-methylpiperazin-1-yl)pyrazolo[1,5-a][1,3,5]triazin-4-amine], the IC50 in assay [1] (setting [5]) is over 20000 nM; in assay [2] (CAL-120, 96 h), 1.52 nM. In addition, the DC50 in assay [3] is 0.053 nM.

For `CN1CCN(c2nc(NCc3nc4c(F)c(Cl)ccc4[nH]3)n3ncc(C4CC4)c3n2)CC1` [Example 371, N-[(5-chloro-4-fluoro-1H-benzimidazol-2-yl)methyl]-8-cyclopropyl-2-(4-methylpiperazin-1-yl)pyrazolo[1,5-a][1,3,5]triazin-4-amine], the IC50 was over 20000 nM in assay [1] (setting [5]) and 3.9 nM in assay [2] (CAL-120, 96 h). Besides, the DC50 in assay [3] was found to be 0.652 nM.

On to `Fc1ccc2[nH]c(CNc3nc(N4CCOCC4)nc4c(Cl)cnn34)nc2c1F` [Example 357], for which the IC50 worked out at 10000 nM in assay [1] (setting [5]) and 4.33 nM in assay [2] (CAL-120, 96 h). The DC50 in assay [3] turned out to be 0.552 nM.
